Literature values as cited in US6124256A, “Method for the prevention of a patient's fibroproliferative vasculopathy” (priority 1998, dated 2000).

How the values were obtained:
restenosis = details: randomized placebo controlled clinical trials; quantitated by angiography or as clinical events
SSTR2 [1] = target: T1, SSTR2 (Homo sapiens, UniProt P30874)
Target sequence in this assay (P30874 whole entry, species assumed): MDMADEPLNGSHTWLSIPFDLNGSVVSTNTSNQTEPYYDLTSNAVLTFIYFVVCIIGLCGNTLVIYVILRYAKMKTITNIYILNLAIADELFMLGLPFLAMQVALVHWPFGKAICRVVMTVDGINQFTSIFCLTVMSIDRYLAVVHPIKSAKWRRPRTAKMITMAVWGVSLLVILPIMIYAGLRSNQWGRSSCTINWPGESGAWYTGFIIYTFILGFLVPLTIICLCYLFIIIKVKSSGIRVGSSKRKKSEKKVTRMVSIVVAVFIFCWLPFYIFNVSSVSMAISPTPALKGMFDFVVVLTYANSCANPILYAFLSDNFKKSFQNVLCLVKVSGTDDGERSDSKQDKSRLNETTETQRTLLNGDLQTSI

dysplastic lesions = details: arterial, venous and vascular transplant models, various animal species; results inconsistent between models
hSSTR1 = target: T2, hSSTR1 (Homo sapiens, UniProt P30872); details: human receptor in transfected CHO cell lines; read-out: binding affinities Ki hSSTR1
T2 construct: expressed in transfected cells; host or cells: CHO

[2] = tested on: SSTR3, the rodent receptor
hSSTR3 [3] = target: T3, hSSTR3 (Homo sapiens, UniProt P32745)
SSTR2 [4] = target: T1, SSTR2; parameters: expressed in transfected cells; host or cells: CHO; details: human receptor in transfected CHO cell lines; read-out: binding affinities Ki hSSTR2
Target sequence in this assay (P30874 whole entry): as the sequence (P30874 whole entry, species assumed) above

hSSTR3 [5] = target: T3, hSSTR3; parameters: expressed in transfected cells; host or cells: CHO; details: human receptor in transfected CHO cell lines; read-out: binding affinities Ki hSSTR3
hSTR5 = target: T4, hSTR5 (Homo sapiens, UniProt P35346); details: human receptor in transfected CHO cell lines; read-out: binding affinities Ki hSTR5
T4 construct: expressed in transfected cells; host or cells: CHO

hSSTR4 = target: T5, hSSTR4 (Homo sapiens, UniProt P31391); details: human receptor in transfected CHO cell lines; read-out: binding affinities Ki hSSTR4
T5 construct: expressed in transfected cells; host or cells: CHO
T5 sequence (P31391 whole entry): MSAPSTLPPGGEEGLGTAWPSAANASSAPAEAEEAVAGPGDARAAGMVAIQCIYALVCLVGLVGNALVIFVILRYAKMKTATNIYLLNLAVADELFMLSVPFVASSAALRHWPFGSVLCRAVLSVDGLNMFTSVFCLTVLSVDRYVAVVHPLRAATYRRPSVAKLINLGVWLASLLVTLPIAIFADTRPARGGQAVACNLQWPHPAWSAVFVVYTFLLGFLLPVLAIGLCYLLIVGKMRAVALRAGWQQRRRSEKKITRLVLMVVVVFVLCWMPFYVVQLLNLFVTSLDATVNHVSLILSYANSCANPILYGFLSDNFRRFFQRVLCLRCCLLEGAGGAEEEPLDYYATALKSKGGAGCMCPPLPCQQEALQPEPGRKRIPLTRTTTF

T2 sequence (P30872 whole entry): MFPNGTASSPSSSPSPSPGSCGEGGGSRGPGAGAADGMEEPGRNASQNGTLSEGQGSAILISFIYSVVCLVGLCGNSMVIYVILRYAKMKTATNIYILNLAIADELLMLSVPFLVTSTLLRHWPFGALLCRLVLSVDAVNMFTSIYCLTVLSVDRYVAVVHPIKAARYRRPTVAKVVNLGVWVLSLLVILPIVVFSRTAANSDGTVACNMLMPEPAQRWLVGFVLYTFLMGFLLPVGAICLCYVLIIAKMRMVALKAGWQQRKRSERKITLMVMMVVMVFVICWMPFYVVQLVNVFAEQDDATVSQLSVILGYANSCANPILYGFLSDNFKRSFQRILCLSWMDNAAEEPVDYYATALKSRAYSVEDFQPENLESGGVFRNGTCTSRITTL
T3 sequence (P32745 whole entry): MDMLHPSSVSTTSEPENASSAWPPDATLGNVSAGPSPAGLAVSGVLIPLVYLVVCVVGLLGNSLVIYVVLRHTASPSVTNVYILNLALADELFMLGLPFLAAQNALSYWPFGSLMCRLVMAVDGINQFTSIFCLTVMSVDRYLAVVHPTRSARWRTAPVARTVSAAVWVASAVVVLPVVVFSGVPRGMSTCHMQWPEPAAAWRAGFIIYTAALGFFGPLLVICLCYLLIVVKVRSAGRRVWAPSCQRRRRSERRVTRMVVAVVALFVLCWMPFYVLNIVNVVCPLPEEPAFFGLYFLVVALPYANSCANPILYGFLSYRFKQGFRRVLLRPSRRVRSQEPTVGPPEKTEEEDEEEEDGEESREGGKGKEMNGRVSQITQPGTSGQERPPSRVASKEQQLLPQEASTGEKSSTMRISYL
T4 sequence (P35346 whole entry): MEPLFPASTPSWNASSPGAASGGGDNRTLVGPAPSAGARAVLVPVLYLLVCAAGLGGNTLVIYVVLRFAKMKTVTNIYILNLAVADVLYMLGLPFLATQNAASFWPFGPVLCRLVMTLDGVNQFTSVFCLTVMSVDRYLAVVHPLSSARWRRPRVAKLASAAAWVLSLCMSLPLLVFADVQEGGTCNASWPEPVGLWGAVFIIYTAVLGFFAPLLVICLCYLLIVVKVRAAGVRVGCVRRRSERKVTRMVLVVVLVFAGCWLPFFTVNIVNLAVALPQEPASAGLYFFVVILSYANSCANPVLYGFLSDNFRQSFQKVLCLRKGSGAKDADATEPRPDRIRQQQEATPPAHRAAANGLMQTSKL

Row | affinity for the rodent SSTR3 receptor (in words) [2] | binding to human SSTR3 (in words) (hSSTR3 [3]) | Ki (SSTR2 [4]) | Ki (hSSTR3 [5]) | Ki (hSTR5) | Ki (hSSTR4) | Molecule | prevention of restenosis after percutaneous transluminal angioplasty (restenosis) | affinity to SSTR2 (in words) (SSTR2 [1]) | formation of dysplastic lesions (dysplastic lesions) | Ki (hSSTR1)
1 | – | – | – | – | – | – | CC(C)[C@@H]1NC(=O)[C@H](CCCCN)NC(=O)[C@@H](Cc2c[nH]c3ccccc23)NC(=O)[C@H](Cc2ccc(O)cc2)NC(=O)[C@@H](NC(=O)[C@H](N)Cc2ccc3ccccc3c2)CSSC[C@@H](C(=O)N[C@H](C(N)=O)[C@@H](C)O)NC1=O [Lanreotide, lanreotide] | in some studies has been shown to prevent restenosis | high affinity | prevents the formation of dysplastic lesions | > 1000 nM
2 | only moderate affinity | binds well | – | – | – | – | C[C@@H](O)[C@@H]1NC(=O)[C@H](CCCCN)NC(=O)[C@@H](Cc2c[nH]c3ccccc23)NC(=O)[C@H](Cc2ccccc2)NC(=O)[C@@H](NC(=O)[C@H](N)Cc2ccccc2)CSSC[C@@H](C(=O)N[C@H](CO)[C@@H](C)O)NC1=O [Octeoride, octreotide] | the same therapeutic response has not been achieved | high affinity | prevents the formation of dysplastic lesions | –
3 | – | – | > 1000 nM | > 1000 nM | > 1000 nM | 4.3 nM | desAA^1.2.5 [D-Trp^6 -N-p-isopropyl-4-aminomethyl-L-phenylalanine]-SST14 [DADI-SST14] | – | – | – | 3.2 nM
